Reference: patent publication US4900749A, “Isoprenoidamine compounds useful as antiulcer agents” (Shionogi & Co., Ltd., priority 1985, dated 1990)

Assays:
lesion formation = assay: inhibition of 60% ethanol/150 mM hydrochloric acid-induced stomach lesion formation (Experiment 1); assay type: in vivo, Male SD rats; details: Rattus norvegicus, 1 h
Experimental: Male SD rats, weighing 200-300 g, were allowed to fast for 24 hours. One milliliter of 60% ethanol (v/v) in 150 mM hydrochloric acid was given orally 1 hour after oral or intraperitoneal administration of test compound as a suspension in 5% gum arabic, and the animals were killed with an overdose of ether 1 hour later. The stomachs were removed and opened along the greater curvature. The total length (mm) of each lesion was measured for use as the lesion index and inhibition (%) of lesion formation by the test compound was calculated by comparing with that of 5% gum arabic as control.
Geranylgeranylacetone (hereinafter abbreviated as GGA) was employed as a reference compound.

acid secretion = assay: inhibition of histamine-stimulated gastric acid secretion in perfused stomach (Experiment 2); assay type: in vivo, Male Jcl SD rats; details: intraduodenal, during 90 minutes after administration, histamine dihydrochloride 3 mg/kg/hr
Experimental: Male Jcl SD rats (body weight; about 300 g) were fast for 24 hours and anesthetized by urethane. Cannula was put into the trachea and into a jugular vein. After midline laparotomy, perfusion cannulae were introduced into the stomach through the pylorus and the esophagus. The animal was perfused with saline (1 ml/min) at 37° C. through the esophagus cannula. Perfusate was collected every 15 minutes through the pylorus cannula and titrated with 0.01N sodium hydroxide to measure acid secretion. Histamine dihydrochloride (3 mg/kg/hr) was infused through the jugular vein cannula and the test compound was administered intraduodenaly 90 minutes later. Acid output in perfusate every 15 minutes was measured in the same manner as described above. The rate of maximum inhibition (%) of acid secretion was calculated during 90 minutes after administration of the test compound compared with the acid output just before administration of the test compound.

[1] = ip, Intraperitoneal administration

Structure (SMILES)	inhibition in vivo at 20 mg/kg (lesion formation; Oral administration) [%]	inhibition in vivo at 20 mg/kg (lesion formation; [1]) [%]	also measured
CC(=O)NCC=C(C)CCC=C(C)CCC=C(C)CCC=C(C)C [Compound I-2, N-(3,7,11,15-Tetramethyl-2,6,10,14-hexadecatetraenyl)acetamide]	46.6		inhibition in vivo at 10 mg/kg (lesion formation; [1]): 71.7%
COCC(=O)NCC=C(C)CCC=C(C)CCC=C(C)CCC=C(C)C [Compound I-4]	29.3	88.4	
CC(C)=CCCC(C)=CCCC(C)=CCCC(C)=CCNC(=O)c1ccccc1 [Compound I-9]		64.2	
CC(C)=CCCC(C)=CCCC(C)=CCCC(C)=CCNC(=O)c1ccco1 [Compound I-12]			inhibition in vivo at 10 mg/kg (lesion formation; [1]): 39.4%
CC(C)=CCCC(C)=CCCC(C)=CCCC(C)=CCNC(=O)Cc1ccccc1 [Compound I-13]		65.3	
CC(C)=CCCC(C)=CCCC(C)=CCCC(C)=CCNC(=O)c1ccc([N+](=O)[O-])cc1 [Compound I-18]		75.1	
CC(C)=CCCC(C)=CCCC(C)=CCCC(C)=CCNC(=O)c1ccccn1 [Compound I-20]	24.2	83.1	
CC(C)=CCCC(C)=CCCC(C)=CCCC(C)=CCNC(=O)c1cccnc1 [Compound I-21]	64.5	99	
CC(C)=CCCC(C)=CCCC(C)=CCCC(C)=CCNC(=O)c1ccncc1 [Compound I-22, N-(3,7,11,15-Tetramethyl-2,6,10,14 hexadecatetraenyl)isonicotinamide]	86.1	85.6	
CC(C)=CCCC(C)=CCCC(C)=CCCC(C)=CCNC(=O)c1cccs1 [Compound I-24]	11.8		inhibition in vivo at 10 mg/kg (lesion formation; [1]): 62.1%
CC(C)=CCCC(C)=CCCC(C)=CCCC(C)=CCNC(=O)c1ccc[nH]1 [Compound I-26]	9.6		inhibition in vivo at 10 mg/kg (lesion formation; [1]): 59.1%
CC(C)=CCCC(C)=CCCC(C)=CCCC(C)=CCNC(=O)c1cnccn1 [Compound I-28]		80.4	
CC(C)=CCCC(C)=CCCC(C)=CCCC(C)=CCNC(=O)Cc1ccccn1 [Compound I-29]			inhibition in vivo at 10 mg/kg (lesion formation; [1]): 64.3%
CC(C)=CCCC(C)=CCCC(C)=CCCC(C)=CCNC(=O)Cc1cccnc1 [Compound I-30]	85.1	93.6	Inhibition (%): rate of maximum inhibition of acid secretion (acid secretion; 20 mg/kg): 57.4%; Inhibition (%): rate of maximum inhibition of acid secretion (acid secretion; 50 mg/kg): 99.5%
CC(C)=CCCC(C)=CCCC(C)=CCCC(C)=CCNC(=O)Cc1c[nH]cn1 [Compound I-31]		91	
CC(C)=CCCC(C)=CCCC(C)=CCCC(C)=CCNC(=O)CC#N [Compound I-36]	56.4	72.2	
CC(C)=CCCC(C)=CCCC(C)=CCCC(C)=CCNC(=O)N1CCOCC1 [Compound I-55, 1-[N-(3,7,11,15-Tetramethyl-2,6,10,14-hexadecatetraenyl)carbamoyl]morpholine]			Inhibition (%): rate of maximum inhibition of acid secretion (acid secretion; 20 mg/kg): 51.1%; Inhibition (%): rate of maximum inhibition of acid secretion (acid secretion; 50 mg/kg): 77.7%; inhibition in vivo at 10 mg/kg (lesion formation; Oral administration): 22.2%; inhibition in vivo at 10 mg/kg (lesion formation; [1]): 76.7%
CC(C)=CCCC(C)=CCCC(C)=CCCC(C)=CCNC(=O)N1CCCCC1 [Compound I-56]		79.4	
CC(C)=CCCC(C)=CCCC(C)=CCCC(C)=CCNC(N)=O [Compound I-57]		84	inhibition in vivo at 10 mg/kg (lesion formation; Oral administration): 36.2%
CC(C)=CCCC(C)=CCCC(C)=CCCC(C)=CCNC(=O)N1CCN(C)CC1 [Compound I-59]		53.3	
CC(C)=CCCC(C)=CCCC(C)=CCCC(C)=CCNC(=O)N1CCN(Cc2ccc3c(c2)OCO3)CC1 [Compound I-62]		46.1	
CC(C)=CCCC(C)=CCCC(C)=CCCC(C)=CCNC(=O)NCCCN1CCOCC1 [Compound I-65]		35.5	
CC(C)=CCCC(C)=CCCC(C)=CCCC(C)=CCNC(=O)NCc1cccnc1 [Compound I-71]	44.2	68.5	
CC(C)=CCCC(C)=CCCC(C)=CCCC(C)=CCNC(=O)N(C)C [Compound I-81, N,N-Dimethyl-N'-(3,7,11,15-tetramethyl-2,6,10,14-hexadecatetraenyl)urea]	23.9	78.2	
CC(C)=CCCC(C)=CCCC(C)=CCCC(C)=CCNC(=O)Nc1ccccc1 [Compound I-82]		62.7	
CC(=O)CCC=C(C)CCC=C(C)CCC=C(C)CCC=C(C)C [GGA, Geranylgeranylacetone, reference compound]	37.7		inhibition in vivo at 50 mg/kg (lesion formation; ip, Intraperitoneal administration, 50 mg/kg): 81%
